Results published in US20240400512A1, “ANALOGS OF N,N,N-TRIMETHYL-4-PHOSPHORYLOXYTRYPTAMINE” (Terran Biosciences Inc., priority 2021, published 2024).

Test: Metabolic stability in human liver microsomes
Format: in vitro ADME
Details: for half-life and intrinsic clearance compared to the respective reference compounds / in vitro clearance compared with 4-OH-Trimethyltryptamine iodide (reference compound A) / in vitro clearance compared with 4-OH-Dimethylethyltryptamine iodide (reference compound B): based on Table 2; for Minus cofactor control (% of 0 min): incubation without cofactor, comment: possible chemical instability or non-cofactor dependent enzymatic degradation; for half-life at 0.25 μM / microsomal CLint at 0.25 μM: pH 7.4, NADPH; for half-life at 0.25 μM / microsomal CLint at 0.25 μM / CLint (μL/min/mg protein) / t1/2: 37° C.; for microsomal CLint at 0.25 μM: read-out: CLint (μL/min/mg protein); for CLint (μL/min/mg protein) / t1/2: NADPH
Protocol: Microsomal Assay: Human liver microsomes (20 mg/mL) are obtained. B-nicotinamide adenine dinucleotide phosphate, reduced form (NADPH), magnesium chloride (MgCl2), and dimethyl sulfoxide (DMSO) are purchased from Sigma-Aldrich.
Determination of Metabolic Stability: 7.5 mM stock solutions of test compounds are prepared in DMSO. […] The diluted microsomes are added to wells of a 96-well deep-well polypropylene plate in triplicate. […] Reactions are initiated by addition of pre-warmed NADPH solution. The final reaction volume is 0.5 mL and contains 4.0 mg/mL human liver microsomes, 0.25 μM test compound, 2 mM NADPH in 0.1 M potassium phosphate buffer, pH 7.4, and 3 mM MgCl2. The reaction mixtures are incubated at 37° C., and 50 pL aliquots are removed at 0, 5, 10, 20, and 30 min or other suitable interval and added to shallow-well 96-well plates containing 50 pL of ice-cold CAN (acetonitrile) with internal standard to stop the reactions. The plates are stored at 4° C. for 20 minutes after which 100 pL of water is added to the wells of the plate before centrifugation to pellet precipitated proteins. Supernatants are transferred to another 96-well plate and analysed for amounts of the test compound remaining by LC-MS/MS using, for example, an Applied Bio-systems API 4000®) mass spectrometer. The same procedure is followed for the non-deuterated counterparts of the test compounds and for the positive control, 7-ethoxy coumarin (1 μM). Testing can be done in triplicate.
Data analysis: The in vitro T1/2s for the test compounds is calculated from the slopes of the linear regression of % test compound remaining (In) vs incubation time.
where k=−[slope of linear regression of % parent remaining (In) vs incubation time. The apparent intrinsic clearance is calculated using the following equation: […]
Data analysis can be performed using Microsoft Excel® Software.

Structure (SMILES)	half-life and intrinsic clearance compared to the respective reference compounds	Minus cofactor control (% of 0 min)	half-life at 0.25 μM [min]	microsomal CLint at 0.25 μM [µL/min/mg]	in vitro clearance compared with 4-OH-Trimethyltryptamine iodide (reference compound A)	CLint (μL/min/mg protein)	t1/2 [min]	in vitro clearance compared with 4-OH-Dimethylethyltryptamine iodide (reference compound B)
[2H]C([2H])(c1c[nH]c2cccc(OC(C)=O)c12)C([2H])([2H])[N+](C)(C([2H])([2H])[2H])C([2H])([2H])[2H].[I-] [Compound 11, 4-Acetoxy-3-(2-(methylbis(methyl-d3)-λ^4-azaneyl)ethyl-1,1,2,2-d4)-1H-indole iodide]	exhibit differences in half-life and intrinsic clearance	Minus cofactor control low (51% of 0 min).	47.8	29	–	–	–	–
[2H]C([2H])(c1c[nH]c2cccc(OC(C)=O)c12)C([2H])([2H])[N+](C)(C)CCC.[I-] [Compound 9, 4-Acetoxy-3-(2-(dimethyl(propyl)-λ^4-azaneyl)ethyl-1,1,2,2-d4)-1H-indole iodide]	exhibit differences in half-life and intrinsic clearance	Minus cofactor control low (20% of 0 min).	18.7	74.3	–	–	–	–
[2H]C([2H])(c1c[nH]c2cccc(O)c12)C([2H])([2H])[N+](C([2H])([2H])[2H])(C([2H])([2H])[2H])C([2H])([2H])[2H].[I-] [Compound 4, 4-Hydroxy-3-(2-(tris(methyl-d3)-λ^4-azaneyl)ethyl-1,1,2,2-d4)-1H-indole iodide]	–	–	3460	0.401	significantly lower in vitro clearance	–	–	–
[2H]C([2H])(c1c[nH]c2cccc(OC(C)=O)c12)C([2H])([2H])[N+](C)(C)CC.[I-] [Compound 8, 4-Acetoxy-3-(2-(ethyldimethyl-λ^4-azaneyl)ethyl-1,1,2,2-d4)-1H-indole iodide]	exhibit differences in half-life and intrinsic clearance	Minus cofactor control low (37% of 0 min).	28.6	48.4	–	–	–	–
CC(=O)Oc1cccc2[nH]cc(CC[N+](C)(C)C)c12.[I-] [reference compound D, 4-OAc-Trimethyltryptamine iodide, reference compound]	–	Minus cofactor control low (51% of 0 min).	–	–	–	28.3	48.9	–
[2H]C([2H])(c1c[nH]c2cccc(O)c12)C([2H])([2H])[N+](C)(C([2H])([2H])[2H])C([2H])([2H])[2H].[I-] [Compound 5, 4-Hydroxy-3-(2-(methylbis(methyl-d3)-λ^4-azaneyl)ethyl-1,1,2,2-d4)-1H-indole iodide]	–	–	6070	0.228	significantly lower in vitro clearance	–	–	–
[2H]C([2H])(c1c[nH]c2cccc(OC(C)=O)c12)C([2H])([2H])[N+](C([2H])([2H])[2H])(C([2H])([2H])[2H])C([2H])([2H])[2H].[I-] [Compound 10, 4-Acetoxy-3-(2-(tris(methyl-d3)-λ^4-azaneyl)ethyl-1,1,2,2-d4)-1H-indole iodide]	exhibit differences in half-life and intrinsic clearance	Minus cofactor control low (44% of 0 min).	46.5	29.8	–	–	–	–
COc1ccc2c(c1)[C@]13CCCC[C@@H]1[C@H](C2)N(C)CC3 [dextromethorphan, reference compound]	–	–	–	–	–	54.9	25.3	–
[2H]C([2H])(c1c[nH]c2cccc(O)c12)C([2H])([2H])[N+](C)(C)CC.[I-] [Compound 2, 3-(2-(Ethyldimethyl-λ^4-azaneyl)ethyl-1,1,2,2-d4)-4-hydroxy-1H-indole iodide]	–	–	494	2.81	–	–	–	significantly lower in vitro clearance
[2H]C([2H])(c1c[nH]c2cccc(O)c12)C([2H])([2H])[N+](C)(C)C.[I-] [Compound 1, 4-Hydroxy-3-(2-(trimethyl-λ^4-azaneyl)ethyl-1,1,2,2-d4)-1H-indole iodide]	–	–	247	5.6	significantly lower in vitro clearance	–	–	–
CCC[N+](C)(C)CCc1c[nH]c2cccc(OC(C)=O)c12.[I-] [reference compound F, 4-OAc-Dimethylpropyltryptamine iodide, reference compound]	–	Minus cofactor control low (27% of 0 min).	–	–	–	62.7	22.1	–
C[N+](C)(C)CCc1c[nH]c2cccc(O)c12.[I-] [reference compound A, 4-OH-Trimethyltryptamine iodide, reference compound]	–	–	–	–	–	6.81	204	–
[2H]C([2H])(c1c[nH]c2cccc(OC(C)=O)c12)C([2H])([2H])[N+](C)(C)C.[I-] [Compound 7, 4-Acetoxy-3-(2-(trimethyl-λ^4-azaneyl)ethyl-1,1,2,2-d4)-1H-indole iodide]	exhibit differences in half-life and intrinsic clearance	Minus cofactor control low (52% of 0 min).	46.7	29.7	–	–	–	–
CC[N+](C)(C)CCc1c[nH]c2cccc(O)c12.[I-] [reference compound B, 4-OH-Dimethylethyltryptamine iodide, reference compound]	–	–	–	–	–	5.41	256	–
[2H]C([2H])(c1c[nH]c2cccc(OC(C)=O)c12)C([2H])([2H])[N+](CC)(C([2H])([2H])[2H])C([2H])([2H])[2H].[I-] [Compound 12, 4-Acetoxy-3-(2-(ethylbis(methyl-d3)-λ^4-azaneyl)ethyl-1,1,2,2-d4)-1H-indole iodide]	exhibit differences in half-life and intrinsic clearance	Minus cofactor control low (40% of 0 min).	33.5	41.4	–	–	–	–
[2H]C([2H])(c1c[nH]c2cccc(O)c12)C([2H])([2H])[N+](CC)(C([2H])([2H])[2H])C([2H])([2H])[2H].[I-] [Compound 6, 3-(2-(Ethylbis(methyl-d3)-λ^4-azaneyl)ethyl-1,1,2,2-d4)-4-hydroxy-1H-indole iodide]	–	–	317	4.38	–	–	–	significantly lower in vitro clearance
[2H]C([2H])(c1c[nH]c2cccc(O)c12)C([2H])([2H])[N+](C)(C)CCC.[I-] [Compound 3, 3-(2-(Dimethyl(propyl)-λ^4-azaneyl)ethyl-1,1,2,2-d4)-4-hydroxy-1H-indole iodide]	–	–	973	1.42	–	–	–	–
CC[N+](C)(C)CCc1c[nH]c2cccc(OC(C)=O)c12.[I-] [reference compound E, 4-OAc-Dimethylethyltryptamine iodide, reference compound]	–	Minus cofactor control low (38% of 0 min).	–	–	–	46.4	29.9	–
